# Laboratory results reported in patent US20240228474A1, “ANTIBACTERIAL COMPOUND” (DISCUVA LIMITED, priority 2021, published 2024).
# Key:
# [1] = tested on: Proteus mirabilis (DSM 4479); test: MIC by broth microdilution (CLSI); type: cell-based; settings: DSM4479
# Procedure: Minimum Inhibitory Concentrations (MICs) versus Escherichia coli (NCTC 13441) and Klebsiella pneumoniae (NCTC 13438) (planktonic bacteria) were determined by the broth microdilution procedure in line with the guidelines of the Clinical and Laboratory Standards Institute (Clinical and Laboratory Standards Institute. Methods for Dilution Antimicrobial Susceptibility Tests for Bacteria That Grow Aerobically, Approved Standard-Eleventh Edition, CLSI document M07, 11 Jan. 2018). The broth dilution method involved a two-fold serial dilution of compounds in 96-well microtitre plates, giving a final concentration range of 0.39-200 μM and a maximum final concentration of 2% DMSO. The bacterial strains tested were Escherichia coli (NCTC 13441) and Klebsiella pneumoniae (NCTC 13438). Strains were grown in cation-adjusted Müller-Hinton broth or on Luria Bertani agar at 37° C. in an ambient atmosphere. The MIC (μM) was determined as the lowest concentration of compound that inhibits growth following a 20-24 hour incubation period.
# Minimum Inhibitory Concentrations (MICs) versus Proteus mirabilis (DSM 4479) were determined for compound (I) and comparative compounds (II) and (III) using the methodology outlined above.
# [2] = Volume of distribution (Vss) from mouse plasma profiles; type: in vivo; settings: mice, 5 mg/kg IV bolus, 2 compartment model
# Procedure: The volume of distribution (Vss) of compound (I) and comparative compounds (II) and (III) was determined from analysis of plasma concentration time profiles obtained from rodent species (mice), following 5 mg/kg IV bolus administration respectively. The volume of distribution was obtained by analysing the rodent plasma profiles for compound (I) and comparative compounds (II) and (III) using a 2 compartment IV bolus model in PK Solver (Excel). The volume of distribution data for compound (I) and comparative compound (II) was collected in separate experiments carried out on different days, and compared in Table 6.
# [3] = Lipophilicity, Log P measured with SiriusT3 (octanol titration); type: physicochemical; settings: octanol / aqueous sample solution
# Procedure: Log P values of compound (I) and comparative compound (III) were measured using the SiriusT3 instrument from Sirius Analytical by performing an acid-based titration and measuring the shift in pKa when the sample solution is in contact with an immiscible solvent (octanol). Log P for the comparative compound (II) was calculated using Marvin (physico-chemical calculation software). The lipophilicity data for compound (I) and comparative compounds (II) and (III) was collected in separate experiments carried out on different days, and compared in Table 5.
# [4] = tested on: Klebsiella pneumoniae ATCC 43816; test: Murine respiratory infection proof-of-concept study, IV bolus; type: in vivo; settings: 26 h from initial infection
# Procedure: Compound (I) and comparative compound (III) were evaluated in proof-of-concept studies in murine models for the treatment of a respiratory infection with Gram-negative bacteria of the order Enterobacterales, a bacteraemia or bloodstream infection with Gram-negative bacteria of the order Enterobacterales, and a urinary tract infection with Gram-negative bacteria of the order Enterobacterales. Each dot, triangle or square indicator represents a single mouse. LOD refers to the limit of detection of the bacteria. […] Each of the proof-of-concept studies was carried out separately. By vehicle is meant pharmaceutically acceptable carrier or excipient. For the proof-of-concept study for the treatment of a respiratory infection caused or exacerbated by Gram-negative bacteria of the order Enterobacterales, CD-1 mice were infected with Klebsiella pneumoniae ATCC 43816. Two hours after infection (‘pre-treatment’ in FIG. 2), a vehicle (20% hydroxypropyl β cyclodextrin) containing no compound (I) or comparative compound (III), or a vehicle (20% hydroxypropyl β cyclodextrin) containing compound (I) or comparative compound (III), was administered by IV bolus at 20 mg/kg, TID (8 hrs apart), over one day.
# [5] = tested on: E. coli BAA-2469 (NDM-1 positive); test: Murine bacteraemia / bloodstream infection proof-of-concept study, IV bolus; type: in vivo; settings: single dose IV bolus 20 mg/kg, 9 h from initial infection
# Procedure: Compound (I) and comparative compound (III) were evaluated in proof-of-concept studies in murine models for the treatment of a respiratory infection with Gram-negative bacteria of the order Enterobacterales, a bacteraemia or bloodstream infection with Gram-negative bacteria of the order Enterobacterales, and a urinary tract infection with Gram-negative bacteria of the order Enterobacterales. Each dot, triangle or square indicator represents a single mouse. LOD refers to the limit of detection of the bacteria. […] Each of the proof-of-concept studies was carried out separately. By vehicle is meant pharmaceutically acceptable carrier or excipient.
# For the proof-of-concept study for the treatment of a bacteraemia or bloodstream infection with Gram-negative bacteria of the order Enterobacterales, CD-1 mice were infected with human urine isolate E. coli BAA-2469 (NDM-1 positive). One hour after infection (‘pre-treatment’ in FIG. 3), a vehicle (20% hydroxypropyl β cyclodextrin) containing no compound (I) or comparative compound (III), or a vehicle (20% hydroxypropyl β cyclodextrin) containing compound (I) or comparative compound (III), was administered by as a single dose IV bolus at 20 mg/kg.
# E. coli UT189 = test: Murine urinary tract infection proof-of-concept study, IV bolus; type: in vivo; settings: IV bolus 20 mg/kg TID over 3 days, 96 h after initial infection
# Procedure: Compound (I) and comparative compound (III) were evaluated in proof-of-concept studies in murine models for the treatment of a respiratory infection with Gram-negative bacteria of the order Enterobacterales, a bacteraemia or bloodstream infection with Gram-negative bacteria of the order Enterobacterales, and a urinary tract infection with Gram-negative bacteria of the order Enterobacterales. Each dot, triangle or square indicator represents a single mouse. LOD refers to the limit of detection of the bacteria. […] Each of the proof-of-concept studies was carried out separately. By vehicle is meant pharmaceutically acceptable carrier or excipient. For the proof-of-concept study for the treatment of a urinary tract infection with Enterobacterales, female C3H/HeN mice were infected with E. coli UT189. Twenty-four hours after infection (‘pre-treatment’ in FIGS. 4a-c), a vehicle (20% hydroxypropyl β cyclodextrin) containing no compound (I) or comparative compound (III), or a vehicle (20% hydroxypropyl β cyclodextrin) containing compound (I) or comparative compound (III), was administered by IV bolus of 20 mg/kg, TID (8 hrs apart), over 3 days.
Compound,MIC [1],Vd [2],logP [3],"reduction of bacterial burden in the lung compared to vehicle ([4]; CD-1 mice, IV bolus 20 mg/kg TID over one day)",CFU value in lung relative to stasis level ([4]; IV bolus 20 mg/kg TID),reduction of bacterial burden in the blood compared to vehicle ([5]; CD-1 mice),bacterial burden (CFU) in the blood at end of study [5],reduction of bacterial burden in the bladder compared to vehicle (E. coli UT189),reduction of bacterial burden in the urine compared to vehicle (E. coli UT189; female C3H/HeN mice)
Cc1cc(-c2[nH]c(N)nc2-c2ccc3c(c2)N(C(=O)CN)CCO3)ccn1 [Comparative Compound (II)],> 200 µM,7.7 L/kg,–,–,–,–,–,–,–
"Cc1cnccc1-c1[nH]c(N)nc1-c1ccc2c(c1)N(C(=O)CN)CCO2 [Comparative Compound (III), reference compound]",> 200 µM,7.9 L/kg,1.03,4.16 log,remained relatively close to the stasis level,4.86 log,remained on or above the stasis level,3.71 log,3.36 log
